Read-outs that look alike come from different tables or passages of the source.
Tests used:
Primary DRG cells [1] = experiment: Neurite outgrowth assay (group A), paclitaxel-induced neurotoxicity; format: cell-based, C57BL/6 J mice; conditions: for neuroprotection against paclitaxel-induced neurotoxicity: 1 µM compound; for activity at 1 µM: Mus musculus, read-out: Neurite outgrowth (%); for Neurite outgrowth (%) A-B (extent of protection): difference between compound 1 µM + paclitaxel 0.05 µM and paclitaxel 0.05 µM alone
Experimental: Compounds of this invention were evaluated using the neurite outgrowth assay as described in Chen et al., Scientific Reports, 7, 45366, DOI: 10.1038/srep45366 (2017).
(§1) Cell culture. For primary culture, dorsal root ganglia (“DRG”) were removed from 7-weeks-old C57BL/6 J mice and digested with 0.1% collagenase (Sigma-Aldrich, St. Louis, MO) for 1 hour, followed by 0.25% trypsin treatment for 25 minutes. The dissociated neuron cultures were plated at a density of 2.5×10^4 cells per well in a 96 well optics plates (CLS3614; Sigma-Aldrich) precoated with 1 mg/mL poly-D-lysine (A-003-M; Sigma-Aldrich) for 3 hours. Primary DRG cells were grown in DMEM-F12 (11320033; Gibco®, ThermoFisher Scientific, Waltham, MA) supplemented with 10% fetal bovine serum (FBS, 26140079; Gibco®, ThermoFisher). These cells were maintained at 37° C. in an environment containing 5% CO2.
(§2) Neurite outgrowth assay (group A). Primary DRG cells were incubated with one of the Example 2 compounds at 1 µM for 24 hours, and then treated with 0.05 µM paclitaxel for another 24 hours. After the paclitaxel treatment, the primary DRG cells were washed by PBS and then fixed with 4% paraformaldehyde (PFA, P6148; Sigma-Aldrich) for 15 minutes. The DRG cells thus fixed were permeabilized by 0.05% Triton X-100 in PBS for 20 minutes and blocked with 3% bovine serum albumin (BSA; Sigma-Aldrich, USA) at room temperature for 1 hour. Subsequently, DRG cells were stained with rabbit anti-β III tubulin (1:600; Cell Signaling, USA) and mouse anti-NeuN monoclonal antibody (1:400; Millipore, USA) overnight at 4° C. The samples were then washed by PBS and reacted with secondary antibodies (Alexa-488 and Alexa-594 1:600; Invitrogen, CA) at room temperature for 1 hour. For image acquisition and analysis of DRG neurite outgrowth, images of stained cells were automatically acquired using 10X objective by Image Xpress Micro wide field fluorescent microscope (Molecular Devices, USA). A control was obtained following the same procedure except that the DRG cells were not treated with a compound or paclitaxel. Neurite outgrowth was measured as a percentage of outgrowth as compared to the control.
The difference between A and B indicates an extent of protection provided by the compound.

Primary DRG cells [2] = experiment: Neurite outgrowth assay (group B), oxaliplatin-induced neurotoxicity; format: cell-based, C57BL/6 J mice
Experimental: as §1, §2
Neurite outgrowth assay (group B). Primary DRG cells were incubated with compounds 17, 47, 97, 98, 101, 104 at 1 µM for 24 hours, and then treated with 100 µM oxaliplatin for another 48 hours. The treatment was obtained following the same procedure as group A except that the DRG cells were treated with a oxaliplatin. Neurite outgrowth was measured as a percentage of outgrowth as compared to the control.

[3] = DRG cells, 1 µM compound 24 h then 0.05 µM paclitaxel 24 h, % of untreated control

| Compound | neuroprotection against paclitaxel-induced neurotoxicity (Primary DRG cells [1]; 0.05 µM paclitaxel) | Neurite outgrowth (%) A-B (extent of protection) (Primary DRG cells [1]) [%] | activity at 1 µM (Primary DRG cells [1]; [3]) [%] | other results |
| --- | --- | --- | --- | --- |
| COC(=O)CCOCCCn1cc(CNc2nc(NC3CCN(Cc4cccc(C(=O)OC)c4)CC3)cc(N3CCOCC3)n2)nn1 [Compound 68] | neuroprotection was provided | 1 | – | activity at 1 µM (Primary DRG cells [1]; 24 h): 41% |
| COC(=O)CCOCCCn1cc(CNc2nc(NC3CCN(Cc4ccc(C#N)cc4)CC3)cc(N3CCOCC3)n2)nn1 [Compound 72] | neuroprotection was provided | 3 | 45 | – |
| COC(=O)CCCCC(=O)N1CCC(Nc2cc(N3CCOCC3)nc(NCc3cn(CCCOCCC(=O)OC)nn3)n2)CC1 [Compound 73] | neuroprotection was provided | 3 | 45 | – |
| CCOC(=O)CNCCC(=O)N1CCC(Nc2cc(N3CCOCC3)nc(NCc3cn(CCCOCCC(=O)OC)nn3)n2)CC1 [Compound 74] | neuroprotection was provided | 3 | 45 | – |
| COC(=O)CCOCCCn1cc(CNc2nc(NC3CCN(Cc4ccc5ccccc5c4)CC3)cc(N3CCOCC3)n2)nn1 [Compound 75] | neuroprotection was provided | – | – | – |
| OCC(CO)Cn1cc(CNc2nc(NC3CCN(Cc4ccccc4)CC3)cc(N3CCOCC3)n2)nn1 [Compound 81] | neuroprotection was provided | 2 | 52 | – |
| CCn1nnc(CNc2nc(NC3CCN(CCC(=O)OC)CC3)cc(N3CCOCC3)n2)n1 [Compound 100] | neuroprotection was provided | 3 | 52 | – |
| OCCCn1cc(CNc2cc(NC3CCNCC3)nc(NCc3cn(CCCO)nn3)n2)nn1 [Compound 108] | neuroprotection was provided | 9 | – | activity at 1 µM (Primary DRG cells [1]; 24 h): 41% |
| O=P(O)(O)CCN1CCC(Nc2cc(N3CCOCC3)nc(NCc3cn(CCO)nn3)n2)CC1 [Compound 114] | neuroprotection was provided | 8 | 55 | – |
| O=P(O)(O)CCN1CCC(Nc2cc(N3CCOCC3)nc(NCc3cn(CCCCO)nn3)n2)CC1 [Compound 117] | neuroprotection was provided | 11 | 58 | – |
| O=P(O)(O)CCN1CCC(Nc2cc(N3CCCCC3)nc(NCc3cn(CCCO)nn3)n2)CC1 [Compound 135] | neuroprotection was provided | 6 | 56 | – |
| O=P(O)(O)CCN1CCC(Nc2cc(N3CCSCC3)nc(NCc3cn(CCCO)nn3)n2)CC1 [Compound 140] | neuroprotection was provided | 4 | 54 | – |
| O=P(O)(O)CCN1CCC(Nc2cc(N3CCS(=O)(=O)CC3)nc(NCc3cn(CCCO)nn3)n2)CC1 [Compound 143] | neuroprotection was provided | 7 | 57 | – |
| O=C1[O][Pt]2([NH][C@@H]3CCCC[C@H]3[NH]2)[O]C1=O [oxaliplatin, reference compound] | – | – | – | neurotoxicity to DRG neurite outgrowth (Primary DRG cells [2]; 100 µM oxaliplatin 48 h): inhibiting neurite outgrowth; inhibition of DRG neurite outgrowth (Primary DRG cells [2]; 100 µM oxaliplatin, across experiments of Table 2): 60%-71; Neurite outgrowth (%) (Primary DRG cells [2]; DRG cells treated with 100 µM oxaliplatin only, % of untreated control, comparator of the compound in the same table row): 29% |
| CC(=O)O[C@H]1C(=O)[C@@]2(C)[C@H]([C@H](OC(=O)c3ccccc3)[C@]3(O)C[C@H](OC(=O)[C@H](O)[C@@H](NC(=O)c4ccccc4)c4ccccc4)C(C)=C1C3(C)C)[C@]1(OC(C)=O)CO[C@@H]1C[C@@H]2O [paclitaxel, reference compound] | – | – | – | neurotoxicity to DRG neurite outgrowth (Primary DRG cells [1]; 0.05 µM paclitaxel 24 h): inhibiting neurite outgrowth; inhibition of DRG neurite outgrowth (Primary DRG cells [1]; 0.05 µM paclitaxel, across experiments of Table 1): 50%-69 |

Source: patent publication US20230085362A1, “PYRIMIDINE COMPOUNDS AND USE THEREOF” (National Health Research Institutes, priority 2021, published 2023)
